Laboratory results: patent US6995143B2, “Macrolides with antibacterial activity” (Basilea Pharmaceutica AG, priority 2002, dated 2006)
Converted amounts (≈) assume the structure as drawn.

Experiments:
Type in all cases: cell-based
[1] = test system: Haemophilus influenzae 12214; assay: MIC, standard agar dilution method using HTM medium
Procedure, shortened: (§1)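 The reported MIC comes from dilution testing done to NCCLS guidance M7-A5. Organism: Haemophilus influenzae.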

[2] = test system: Haemophilus influenzae QK50; assay: as above
Procedure, shortened: as §1

[3] = test system: Haemophilus influenzae B1501; assay: as above
Procedure, shortened: as §1

[4] = test system: Haemophilus influenzae QK12/87; assay: as above
Procedure, shortened: as §1

[5] = test system: Streptococcus pneumoniae 12288; assay: MIC, standard microdilution technique
Procedure, shortened: (§2)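 Susceptibility testing used the NCCLS fifth-edition approved standard for aerobic organisms (M7-A5).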

[6] = test system: Streptococcus pneumoniae ¼; assay: MIC, standard microdilution technique
Procedure, shortened: as §2

[7] = test system: Staphylococcus aureus 745; assay: MIC, standard microdilution technique
Procedure, shortened: as §2

[8] = test system: Streptococcus pneumoniae l/l; assay: MIC, standard microdilution technique
Procedure, shortened: as §2

[9] = test system: Staphylococcus aureus ATCC 29213; assay: MIC, standard microdilution technique
Procedure, shortened: as §2

[10] = test system: Streptococcus pneumoniae SL199T; assay: MIC, standard microdilution technique
Procedure, shortened: as §2

[11] = test system: Escherichia coli ATCC 25922; assay: MIC, standard microdilution technique
Procedure, shortened: as §2

[12] = test system: Staphylococcus aureus 1086; assay: MIC, standard microdilution technique
Procedure, shortened: as §2

SMILES	minimum inhibitory concentration (MIC), Strain K [1] [µg/mL]	minimum inhibitory concentration (MIC), Strain L [2] [µg/mL]	minimum inhibitory concentration (MIC), Strain M [3] [µg/mL]	minimum inhibitory concentration (MIC), Strain I [4] [µg/mL]	minimum inhibitory concentration (MIC), Strain H [5] [µg/mL]	minimum inhibitory concentration (MIC), Strain F [6] [µg/mL]	minimum inhibitory concentration (MIC), Strain C [7] [µg/mL]	minimum inhibitory concentration (MIC), Strain E [8]	minimum inhibitory concentration (MIC), Strain A [9] [µg/mL]	minimum inhibitory concentration (MIC), Strain G [10] [µg/mL]	minimum inhibitory concentration (MIC), Strain D [11] [µg/mL]	minimum inhibitory concentration (MIC), Strain B [12] [µg/mL]
CC[C@H]1OC(=O)[C@@](C)(F)C(=O)[C@H](C)[C@@H](O[C@@H]2O[C@H](C)C[C@H](N(C)C)[C@H]2O)[C@](C)(OC)C[C@@H](C)C(=O)[C@H](C)[C@H]2[C@@H](SCCCn3cc(-c4ccccc4)cn3)C(=O)O[C@@]21C (single isomer, unassigned) [Example 10]	>32	32 (≈ 37.8 µM)	>32	32 (≈ 37.8 µM)	16 (≈ 18.9 µM)	2 (≈ 2.36 µM)	>32	0.5 µg/mL (≈ 0.591 µM)	0.5 (≈ 0.591 µM)	8 (≈ 9.46 µM)	>32	0.5 (≈ 0.591 µM)
CC[C@H]1OC(=O)[C@@](C)(F)C(=O)[C@H](C)[C@@H](O[C@@H]2O[C@H](C)C[C@H](N(C)C)[C@H]2O)[C@](C)(OC)C[C@@H](C)C(=O)[C@H](C)[C@H]2[C@@H](SCC(=O)Nc3cccc4cccnc34)C(=O)O[C@@]21C (single isomer, unassigned) [Example 25]	4 (≈ 4.73 µM)	4 (≈ 4.73 µM)	8 (≈ 9.46 µM)	8 (≈ 9.46 µM)	4 (≈ 4.73 µM)	0.125 (≈ 0.148 µM)	32 (≈ 37.8 µM)	<=0.06 μg/ml	0.25 (≈ 0.295 µM)	2 (≈ 2.36 µM)	>32	0.125 (≈ 0.148 µM)
CC[C@H]1OC(=O)[C@H](C)C(=O)[C@H](C)[C@@H](O[C@@H]2O[C@H](C)C[C@H](N(C)C)[C@H]2O)[C@](C)(OC)C[C@@H](C)C(=O)[C@H](C)[C@H]2[C@@H](SCC(=O)c3csc4ccccc34)C(=O)O[C@@]21C [Example 54]	16 (≈ 19.6 µM)	32 (≈ 39.1 µM)	8 (≈ 9.78 µM)	16 (≈ 19.6 µM)	>32	32 (≈ 39.1 µM)	>32	<=0.06 μg/ml	1 (≈ 1.22 µM)	>32	>32	0.5 (≈ 0.611 µM)
